Experimental data as given in the NIST ThermoML archive (doi:10.1021/je050010l).
Numbers after ± are expanded uncertainties.

How the values were obtained:
[1] = refractive index (Na D-line) (dimensionless); xn = mol fraction of the nth substance listed; details: 100.8 kPa, Liquid, Standard Abbe refractometry
[2] = xn = mol fraction of the nth substance listed; details: 100.8 kPa, Liquid; for viscosity: Capillary tube (Ostwald / Ubbelohde) method

CC(C)CC(C)(C)C [2,2,4-trimethylpentane] + CC(C)=O
Details	mass density, 288.15 K [kg/m3]	mass density, 298.15 K [kg/m3]	mass density, 308.15 K [kg/m3]	refractive index, 288.15 K	refractive index, 298.15 K	refractive index, 308.15 K	viscosity, 288.15 K [mPa·s]	viscosity, 298.15 K [mPa·s]	viscosity, 308.15 K [mPa·s]
[1], x2 = 0	–	–	–	1.39404 ± 0.00031	1.389 ± 0.00031	1.38395 ± 0.00031	–	–	–
[1], x2 = 0.0499	–	–	–	1.39283 ± 0.00031	1.38765 ± 0.00031	1.38256 ± 0.00031	–	–	–
[1], x2 = 0.1	–	–	–	1.39158 ± 0.00031	1.38634 ± 0.00031	1.38119 ± 0.00031	–	–	–
[1], x2 = 0.15	–	–	–	1.39031 ± 0.00031	1.38501 ± 0.00031	1.37981 ± 0.00031	–	–	–
[1], x2 = 0.2	–	–	–	1.38905 ± 0.00031	1.38374 ± 0.00031	1.37848 ± 0.00031	–	–	–
[1], x2 = 0.25	–	–	–	1.38769 ± 0.00031	1.3824 ± 0.00031	1.3771 ± 0.00031	–	–	–
[1], x2 = 0.3	–	–	–	1.3864 ± 0.00031	1.3811 ± 0.00031	1.37574 ± 0.00031	–	–	–
[1], x2 = 0.35	–	–	–	1.38509 ± 0.00031	1.37975 ± 0.00031	1.37434 ± 0.00031	–	–	–
[1], x2 = 0.4	–	–	–	1.38374 ± 0.00031	1.37833 ± 0.00031	1.3729 ± 0.00031	–	–	–
[1], x2 = 0.45	–	–	–	1.38233 ± 0.00031	1.37687 ± 0.00031	1.37142 ± 0.00031	–	–	–
[1], x2 = 0.5	–	–	–	1.38086 ± 0.00031	1.37538 ± 0.00031	1.36989 ± 0.00031	–	–	–
[1], x2 = 0.55	–	–	–	1.37934 ± 0.00031	1.37379 ± 0.00031	1.36831 ± 0.00031	–	–	–
[1], x2 = 0.6	–	–	–	1.37774 ± 0.00031	1.37219 ± 0.00031	1.36666 ± 0.00031	–	–	–
[1], x2 = 0.65	–	–	–	1.37606 ± 0.00031	1.3705 ± 0.00031	1.36495 ± 0.00031	–	–	–
[1], x2 = 0.7	–	–	–	1.3743 ± 0.00031	1.3687 ± 0.00031	1.36314 ± 0.00031	–	–	–
[1], x2 = 0.75	–	–	–	1.37243 ± 0.00031	1.36683 ± 0.00031	1.36126 ± 0.00031	–	–	–
[1], x2 = 0.8	–	–	–	1.37045 ± 0.00031	1.36486 ± 0.00031	1.35931 ± 0.00031	–	–	–
[1], x2 = 0.85	–	–	–	1.36839 ± 0.00031	1.36279 ± 0.00031	1.35726 ± 0.00031	–	–	–
[1], x2 = 0.9	–	–	–	1.36624 ± 0.00031	1.36064 ± 0.00031	1.3551 ± 0.00031	–	–	–
[1], x2 = 0.95	–	–	–	1.36394 ± 0.00031	1.35838 ± 0.00031	1.35285 ± 0.00031	–	–	–
[2], x2 = 0	695.95 ± 0.31	687.74 ± 0.31	679.41 ± 0.32	–	–	–	0.537 ± 0.005	0.48 ± 0.004	0.432 ± 0.004
[2], x2 = 0.0499	697.34 ± 0.31	688.89 ± 0.31	680.44 ± 0.32	–	–	–	0.519 ± 0.005	0.465 ± 0.004	0.42 ± 0.004
[2], x2 = 0.1	698.86 ± 0.31	690.36 ± 0.31	681.77 ± 0.32	–	–	–	0.505 ± 0.004	0.452 ± 0.004	0.408 ± 0.004
[2], x2 = 0.15	700.68 ± 0.3	692.07 ± 0.31	683.36 ± 0.32	–	–	–	0.492 ± 0.004	0.44 ± 0.004	0.397 ± 0.004
[2], x2 = 0.2	702.68 ± 0.3	693.98 ± 0.31	685.16 ± 0.31	–	–	–	0.479 ± 0.004	0.429 ± 0.004	0.387 ± 0.004
[2], x2 = 0.25	705.09 ± 0.3	696.24 ± 0.31	687.26 ± 0.31	–	–	–	0.468 ± 0.004	0.419 ± 0.004	0.378 ± 0.003
[2], x2 = 0.3	707.68 ± 0.3	698.7 ± 0.3	689.56 ± 0.31	–	–	–	0.456 ± 0.004	0.409 ± 0.004	0.369 ± 0.003
[2], x2 = 0.35	710.55 ± 0.29	701.44 ± 0.3	692.21 ± 0.31	–	–	–	0.446 ± 0.004	0.399 ± 0.004	0.361 ± 0.003
[2], x2 = 0.4	713.76 ± 0.29	704.51 ± 0.3	695.1 ± 0.31	–	–	–	0.436 ± 0.004	0.39 ± 0.004	0.353 ± 0.003
[2], x2 = 0.45	717.31 ± 0.29	707.86 ± 0.3	698.29 ± 0.3	–	–	–	0.426 ± 0.004	0.382 ± 0.004	0.346 ± 0.003
[2], x2 = 0.5	721.15 ± 0.29	711.61 ± 0.29	701.91 ± 0.3	–	–	–	0.416 ± 0.004	0.374 ± 0.003	0.338 ± 0.003
[2], x2 = 0.55	725.46 ± 0.28	715.73 ± 0.29	705.86 ± 0.3	–	–	–	0.407 ± 0.004	0.366 ± 0.003	0.332 ± 0.003
[2], x2 = 0.6	730.17 ± 0.28	720.32 ± 0.29	710.3 ± 0.29	–	–	–	0.398 ± 0.004	0.358 ± 0.003	0.325 ± 0.003
[2], x2 = 0.65	735.45 ± 0.27	725.44 ± 0.28	715.27 ± 0.29	–	–	–	0.389 ± 0.004	0.35 ± 0.003	0.318 ± 0.003
[2], x2 = 0.7	741.35 ± 0.27	731.16 ± 0.28	720.79 ± 0.28	–	–	–	0.38 ± 0.003	0.343 ± 0.003	0.312 ± 0.003
[2], x2 = 0.75	747.84 ± 0.26	737.51 ± 0.27	727.01 ± 0.28	–	–	–	0.372 ± 0.003	0.336 ± 0.003	0.306 ± 0.003
[2], x2 = 0.8	755.3 ± 0.26	744.71 ± 0.27	733.99 ± 0.27	–	–	–	0.364 ± 0.003	0.329 ± 0.003	0.299 ± 0.003
[2], x2 = 0.85	763.58 ± 0.25	752.89 ± 0.26	742.02 ± 0.27	–	–	–	0.356 ± 0.003	0.322 ± 0.003	0.293 ± 0.003
[2], x2 = 0.9	773.12 ± 0.24	762.22 ± 0.25	751.12 ± 0.26	–	–	–	0.348 ± 0.003	0.315 ± 0.003	0.287 ± 0.003
[2], x2 = 0.95	784.18 ± 0.24	773.02 ± 0.24	761.68 ± 0.25	–	–	–	0.341 ± 0.003	0.309 ± 0.003	0.281 ± 0.003
